# According to patent US20080015225A1, “Dimeric Piperidine Derivatives” (JANSSEN PHARMACEUTICA N.V., priority 2004, published 2008):
# Test system: chicken dorsal root ganglion (DRG) neurons
# Assay: Neuronal viability assay (calcein-AM) in primary culture of chicken dorsal root ganglion neurons
# Type: cell-based, chicken (White Leghorn chick embryos)
# Conditions: Gallus gallus, DRG neuron, 48 h; survival of chick embryonic day 10 DRG neurons after two days of incubation; calcein-AM fluorescence; 0% = no neurotrophic factor, 100% = 10 ng/ml NGF; pIC50 from dose response curves; read-out: [C1] DRG assay SCORE
# Excerpt: This assay is based on a fluorimetric Calcein-AM measurement and addresses the functional response of neurons as a quantitative measure of survival.
# Primary Culture of Chicken Dorsal Root Ganglion Neurons
# Dorsal root ganglia were dissected from White Leghorn chick embryos at embryonic day 10 as described previously (Skaper S. D. and Varon S. (1986) Brain Research 389, 39-46). The ganglia were trypsinised and dissociated by mild trituration in a HBSS buffer supplemented with 0.6% glucose and 0.08% trypsin. To remove non-neuronal lo cells by differential attachment to culture plastic, the ganglionic cell suspension was diluted to 2.5×10^5 cells/ml and seeded on tissue culture plastic dishes at 10 ml per 100 mm dish. After 2 h preplating, unattached neurons were collected and resuspended into Basal Eagle Medium containing 10% FCS. To remove cell aggregates, the cell suspension was passed through a nylon mesh (50 μM) pore diameter. Neuron-enriched cell suspension was plated at 5×10^4 cells/ml into poly-L-ornithine (100 μg/ml) and laminine (1 μg/ml) coated multiwell 96 plates. Compounds were dissolved in dimethyl sulfoxide and kept as a stock at −20° C. NGF and compounds were diluted in the culture medium and added to the cells immediately after plating. The final concentration of dimethyl sulfoxide in the test medium was 0.1%. After two days of incubation, neuronal viability was assessed with calcein-AM.
# Neuronal Viability Assay Using Calcein-AM
# Neuronal viability assay using calcein AM was performed as previously described (Bozyczko-Coyne D., McKenna B. W., Connors T. J., and Neff N. T. (1993) Journal of Neuroscience Methods 50, 205-216). For the assay, calcein-AM was diluted in PBS to the final concentration (1 μM). For each experiment an aliquot of calcein-AM (1 mg/ml in DMSO stored at −20° C.) was thawed immediately before use. The medium was removed from the wells and replaced with the calcein-AM solution. Assay plates were incubated for 1 h at 37° C. in a humidified CO2 incubator. Following the incubation, reading was done in a Cytofluor II at an excitation wavelength of 485 nm and an emission wavelength of 530 nm. Each plate had control wells with no neurotrophic factor added (0% survival) and wells with 10 ng/ml NGF (100% survival).
# The drugs to be tested were taken from a stock solution and tested at a final concentration ranging from […] to 3.10^−9M. From the thus obtained dose response curves, the pIC50 value was calculated and scored as follows; Score 1=pIC50 value <6, Score 2=pIC50 value in the range of 6 to 8, Score 3 =pIC50 value>8. (in this table NT stands for Not Tested).
row,Structure (SMILES),IC50
1,O=C(c1ccc(F)cc1)C1CCN(CC#CCN2CCC(C(=O)c3ccc(F)cc3)CC2)CC1 [Compound 1],< 10 nM
2,c1ccc2c(c1)CCN2C1CCN(CCCCCCCCCCCCN2CCC(N3CCc4ccccc43)CC2)CC1 [Compound 2],10 to 1000 nM
3,O=C(NCCCCCCNC(=O)N1CCC(O)(c2cccc(C(F)(F)F)c2)C(O)C1)N1CCC(O)(c2cccc(C(F)(F)F)c2)C(O)C1 (stereo not drawn) [Compound 3],10 to 1000 nM
4,CC(C)(C)Cc1nc(C2CCN(C(=O)CCCCCC(=O)N3CCC(c4noc(CC(C)(C)C)n4)CC3)CC2)no1 [Compound 4],> 1000 nM
5,O=S(=O)(c1ccc(Cc2ccc(S(=O)(=O)N3CCC(O)(c4cccnc4)CC3)cc2)cc1)N1CCC(O)(c2cccnc2)CC1 [Compound 5],10 to 1000 nM
6,O=S(=O)(c1ccc(Oc2ccc(S(=O)(=O)N3CCC(O)(c4ccc(Br)cc4)CC3)cc2)cc1)N1CCC(O)(c2ccc(Br)cc2)CC1 [Compound 6],> 1000 nM
7,O=C(CCCCCCCC(=O)N1CCC(O)(c2cccc(Cl)c2)CC1)N1CCC(O)(c2cccc(Cl)c2)CC1 [Compound 7],> 1000 nM
8,O=C(CCCCC(=O)N1CCC(OCc2cccc(C(F)(F)F)c2)CC1)N1CCC(OCc2cccc(C(F)(F)F)c2)CC1 [Compound 10],10 to 1000 nM
9,O=C(CCCCCCC(=O)N1CCC(Oc2nc3ccccc3s2)CC1)N1CCC(Oc2nc3ccccc3s2)CC1 [Compound 11],10 to 1000 nM
10,O=C(CCCCCCC(=O)N1CCC(OCc2cccc(C(F)(F)F)c2)CC1)N1CCC(OCc2cccc(C(F)(F)F)c2)CC1 [Compound 12],10 to 1000 nM
11,O=S(=O)(c1ccc(Cc2ccc(S(=O)(=O)N3CCC(O)(c4ccc(Cl)c(Cl)c4)CC3)cc2)cc1)N1CCC(O)(c2ccc(Cl)c(Cl)c2)CC1 [Compound 13],> 1000 nM
12,O=S(=O)(c1ccc(Oc2ccc(S(=O)(=O)N3CCC(O)(c4ccc(Cl)c(Cl)c4)CC3)cc2)cc1)N1CCC(O)(c2ccc(Cl)c(Cl)c2)CC1 [Compound 14],10 to 1000 nM
13,O=S(=O)(c1ccc(Oc2ccc(S(=O)(=O)N3CCC(O)(c4cccc(Cl)c4)CC3)cc2)cc1)N1CCC(O)(c2cccc(Cl)c2)CC1 [Compound 15],10 to 1000 nM
14,O=S(=O)(c1ccc(Oc2ccc(S(=O)(=O)N3CCC(O)(c4ccc(Cl)cc4)CC3)cc2)cc1)N1CCC(O)(c2ccc(Cl)cc2)CC1 [Compound 16],10 to 1000 nM
15,C(#CCN1CCC(c2c[nH]c3ccccc23)CC1)CN1CCC(c2c[nH]c3ccccc23)CC1 [Compound 17],10 to 1000 nM
16,OC(CN1CCC(O)(c2cccc(C(F)(F)F)c2)C(O)C1)CN1CCC(O)(c2cccc(C(F)(F)F)c2)C(O)C1 (stereo not drawn) [Compound 18],10 to 1000 nM
17,OC(CN1CCC(O)(c2ccc(Cl)cc2)CC1)CN1CCC(O)(c2ccc(Cl)cc2)CC1 [Compound 19],10 to 1000 nM
18,O=C(CCCCCCCC(=O)N1CCC(O)(c2ccc(Cl)c(C(F)(F)F)c2)CC1)N1CCC(O)(c2ccc(Cl)c(C(F)(F)F)c2)CC1 [Compound 20],10 to 1000 nM
19,O=C(c1cccc(C(=O)N2CCC(O)(c3ccc(Cl)c(C(F)(F)F)c3)CC2)c1)N1CCC(O)(c2ccc(Cl)c(C(F)(F)F)c2)CC1 [Compound 21],10 to 1000 nM
20,O=C(CCCCCCCC(=O)N1CCC(O)(c2ccc(Cl)c(Cl)c2)CC1)N1CCC(O)(c2ccc(Cl)c(Cl)c2)CC1 [Compound 22],> 1000 nM
21,O=C(c1ccc(Cl)cc1)C1CCN(C(=O)CCCCCCCC(=O)N2CCC(C(=O)c3ccc(Cl)cc3)CC2)CC1 [Compound 23],10 to 1000 nM

row,Structure (SMILES),IC50
1,O=C(c1ccc(Cl)cc1)C1CCN(C(=O)CCCCC(=O)N2CCC(C(=O)c3ccc(Cl)cc3)CC2)CC1 [Compound 24],10 to 1000 nM
2,O=C(CCCCC(=O)N1CCC(O)(c2ccc(Cl)c(C(F)(F)F)c2)CC1)N1CCC(O)(c2ccc(Cl)c(C(F)(F)F)c2)CC1 [Compound 25],> 1000 nM
3,OC1(c2ccc(Cl)cc2)CCN(CC#CCN2CCC(O)(c3ccc(Cl)cc3)CC2)CC1 [Compound 26],< 10 nM
4,COc1cc2nc(NCC3CCN(C(=O)NCCCCCCNC(=O)N4CCC(CNc5nc6cc(OC)c(OC)cc6s5)CC4)CC3)sc2cc1OC [Compound 27],10 to 1000 nM
5,O=C(NCCCCCCNC(=O)N1CCC(O)(c2ccc(Cl)cc2)CC1)N1CCC(O)(c2ccc(Cl)cc2)CC1 [Compound 28],10 to 1000 nM
6,O=C(NCCCCCCNC(=O)N1CCC(Cc2c[nH]c3ccccc23)CC1)N1CCC(Cc2c[nH]c3ccccc23)CC1 [Compound 29],10 to 1000 nM
7,O=C(NCCCCCCNC(=O)N1CCC(c2noc3cc(F)ccc23)CC1)N1CCC(c2noc3cc(F)ccc23)CC1 [Compound 30],10 to 1000 nM
8,O=C(Nc1ccc(Cc2ccc(NC(=O)N3CCC(O)(c4ccc(F)cc4)CC3)cc2)cc1)N1CCC(O)(c2ccc(F)cc2)CC1 [Compound 32],> 1000 nM
9,O=C(Nc1ccc(NC(=O)N2CCC(O)(c3cccc(C(F)(F)F)c3)CC2)cc1)N1CCC(O)(c2cccc(C(F)(F)F)c2)CC1 [Compound 33],10 to 1000 nM
10,O=C(Nc1ccc(NC(=O)N2CCC(O)(c3ccc(Cl)c(C(F)(F)F)c3)CC2)cc1)N1CCC(O)(c2ccc(Cl)c(C(F)(F)F)c2)CC1 [Compound 34],10 to 1000 nM
11,O=C(NCCCCCCNC(=O)N1CCC(Cc2nc3ccccc3s2)CC1)N1CCC(Cc2nc3ccccc3s2)CC1 [Compound 36],10 to 1000 nM
12,O=C(c1cccc(C(F)(F)F)c1)C1CCN(C(=O)NCCCCNC(=O)N2CCC(C(=O)c3cccc(C(F)(F)F)c3)CC2)CC1 [Compound 38],10 to 1000 nM
13,c1ccc2c(CC3CCN(CCCN4CCC(Cc5c[nH]c6ccccc56)CC4)CC3)c[nH]c2c1 [Compound 39],10 to 1000 nM
14,Fc1ccc2c(C3CCN(CC#CCN4CCC(c5noc6cc(F)ccc56)CC4)CC3)noc2c1 [Compound 40],10 to 1000 nM
15,COc1ccc(-c2noc(C3CCN(C(=O)c4ccc(-c5ccc(C(=O)N6CCC(c7nc(-c8ccc(OC)c(OC9CCCC9)c8)no7)CC6)cc5)cc4)CC3)n2)cc1OC1CCCC1 [Compound 41],10 to 1000 nM
16,O=C(CCCCCCCC(=O)N1CCC(c2noc3cc(F)ccc23)CC1)N1CCC(c2noc3cc(F)ccc23)CC1 [Compound 42],10 to 1000 nM
17,O=C(c1cccc(C(=O)N2CCC(O)(c3ccc(Cl)c(Cl)c3)CC2)c1)N1CCC(O)(c2ccc(Cl)c(Cl)c2)CC1 [Compound 43],> 1000 nM
18,O=C(c1cccc(C(=O)N2CCC(O)(c3cccc(C(F)(F)F)c3)CC2)c1)N1CCC(O)(c2cccc(C(F)(F)F)c2)CC1 [Compound 44],> 1000 nM
19,O=C(c1ccc(F)cc1)C1CCN(C(=O)CCCCCCCC(=O)N2CCC(C(=O)c3ccc(F)cc3)CC2)CC1 [Compound 45],> 1000 nM
20,OC1(c2ccc(Cl)c(Cl)c2)CCN(CC#CCN2CCC(O)(c3ccc(Cl)c(Cl)c3)CC2)CC1 [Compound 47],10 to 1000 nM
21,O=C(NCCCCCCNC(=O)N1CCC(O)(c2ccc(Cl)c(C(F)(F)F)c2)CC1)N1CCC(O)(c2ccc(Cl)c(C(F)(F)F)c2)CC1 [Compound 48],10 to 1000 nM
